From publication PMC3242765, “Inhibitors of Alphavirus Entry and Replication Identified with a Stable Chikungunya Replicon Cell Line and Virus-Based Assays” (PLoS ONE, 2011)
Counter-ions that a name gives are not always drawn.

What was measured:
[1] = system: SFV-Rluc
[2] = system: CHIKV replicon; assay: microbe, parasite or virus in culture; type: cell-based, Chikungunya virus (CHIKV)

In the case of `CC(=O)N(c1onc(C)c1C)S(=O)(=O)c1ccc(N)cc1` [Acetylsulfisoxazole], the “SFV replication % left (surviving fraction, remaining percentage of SFV replication)” value [1] is reported as 40.4% and the “CHIKV replicon % left” value [2] is reported as 82.1%.

With `C=CCC1(CC=C)C(=O)NC(=O)NC1=O` [Allobarbital] the “SFV replication % left (surviving fraction, remaining percentage of SFV replication)” value [1] was 45.6% and the “CHIKV replicon % left” value [2] was 121.1%.

For `O=c1cc(-c2ccccc2)oc2c1ccc1ccccc12` [Alphanaphthoflavone], the “SFV replication % left (surviving fraction, remaining percentage of SFV replication)” value [1] was 14.6% and the “CHIKV replicon % left” value [2] was 30.8%.

For `CCC(CN(C)C)(CN(C)C)OC(=O)c1ccccc1.Cl` [Amydricaine hydrochloride], the “SFV replication % left (surviving fraction, remaining percentage of SFV replication)” value [1] was 43.4% and the “CHIKV replicon % left” value [2] was 74.3%.

For `c1ccc(CN(CC2=NCCN2)c2ccccc2)cc1` [Antazoline hydrochloride], the “SFV replication % left (surviving fraction, remaining percentage of SFV replication)” value [1] was 38.7% and the “CHIKV replicon % left” value [2] was 100.5%.

With `Cc1cc(=O)n(-c2ccccc2)n1C` [Antipyrine] the “SFV replication % left (surviving fraction, remaining percentage of SFV replication)” value [1] was 60.1% and the “CHIKV replicon % left” value [2] was 102.6%.

`COC(=O)C1=CCCN(C)C1` [Arecoline hydrobromide] was tested, and the “SFV replication % left (surviving fraction, remaining percentage of SFV replication)” value [1] was 83.6% and the “CHIKV replicon % left” value [2] was 101.1%.

For `C[N+]1(C)[C@@H]2CC[C@H]1C[C@@H](OC(=O)C(CO)c1ccccc1)C2` (stereo partly drawn) [Atropine methyl nitrate], the “SFV replication % left (surviving fraction, remaining percentage of SFV replication)” value [1] was 46.8% and the “CHIKV replicon % left” value [2] was 61.7%.

`CCCCNCC(O)c1ccc(O)cc1` (stereo not drawn) [Bamethan] was tested, and the “SFV replication % left (surviving fraction, remaining percentage of SFV replication)” value [1] was 67.1% and the “CHIKV replicon % left” value [2] was 96.9%.

For `CCC1(CC)C(=O)NC(=O)NC1=O` [Barbital], the “SFV replication % left (surviving fraction, remaining percentage of SFV replication)” value [1] was 64.7% and the “CHIKV replicon % left” value [2] was 106.1%.

With `O=C1CC(=O)NC(=O)N1` [Barbituric acid] the “SFV replication % left (surviving fraction, remaining percentage of SFV replication)” value [1] was 48.8% and the “CHIKV replicon % left” value [2] was 88.4%.

`CCOC(=O)c1ccc(N)cc1` [Benzocaine] was tested, and the “SFV replication % left (surviving fraction, remaining percentage of SFV replication)” value [1] was 43.4% and the “CHIKV replicon % left” value [2] was 85.4%.

With `O=C(O)c1ccccc1` [Benzoic acid] the “SFV replication % left (surviving fraction, remaining percentage of SFV replication)” value [1] was 71.6% and the “CHIKV replicon % left” value [2] was 99.1%.

With `COc1c2ccoc2cc2oc(=O)ccc12` [Bergapten, 5-Methoxypsoralen] the “SFV replication % left (surviving fraction, remaining percentage of SFV replication)” value [1] was 46.8% and the “CHIKV replicon % left” value [2] was 100.5%.

`CN(Cc1cc(Br)cc(Br)c1N)C1CCCCC1` [Bromhexine hydrochloride] was tested, and the “SFV replication % left (surviving fraction, remaining percentage of SFV replication)” value [1] was 64.8% and the “CHIKV replicon % left” value [2] was 82.8%.

In the case of `CCCCNC(=O)c1ccc(Cl)cc1O` [Buclosamide], the “SFV replication % left (surviving fraction, remaining percentage of SFV replication)” value [1] is reported as 49.6% and the “CHIKV replicon % left” value [2] is reported as 100.6%.

For `CC(C)(C)NCC(O)COc1ccccc1C#N` (stereo not drawn) [Bunitrolol], the “SFV replication % left (surviving fraction, remaining percentage of SFV replication)” value [1] was 40.7% and the “CHIKV replicon % left” value [2] was 58.9%.

`CS(=O)(=O)OCCCCOS(C)(=O)=O` [Busulfan] was tested, and the “SFV replication % left (surviving fraction, remaining percentage of SFV replication)” value [1] was 51.8% and the “CHIKV replicon % left” value [2] was 100.5%.

`CCCCC1(CC)C(=O)NC(=O)NC1=O` [Butethal] was tested, and the “SFV replication % left (surviving fraction, remaining percentage of SFV replication)” value [1] was 45.2% and the “CHIKV replicon % left” value [2] was 78.2%.

With `CCC(C)NCC(O)c1ccc2c(c1)CCCC2` (stereo not drawn) [Butidrine] the “SFV replication % left (surviving fraction, remaining percentage of SFV replication)” value [1] was 73.1% and the “CHIKV replicon % left” value [2] was 89.2%.

For `CCCCOC(=O)c1ccc(N)cc1` [Butyl 4-Aminobenzoate], the “SFV replication % left (surviving fraction, remaining percentage of SFV replication)” value [1] was 76.6% and the “CHIKV replicon % left” value [2] was 102.7%.

`COc1ccc(O)c(C(C)(C)C)c1` [Butylated hydroxyanisole] was tested, and the “SFV replication % left (surviving fraction, remaining percentage of SFV replication)” value [1] was 66.8% and the “CHIKV replicon % left” value [2] was 79.9%.

For `Cc1cc(C(C)(C)C)c(O)c(C(C)(C)C)c1` [Butylated hydroxytoluene], the “SFV replication % left (surviving fraction, remaining percentage of SFV replication)” value [1] was 72.6% and the “CHIKV replicon % left” value [2] was 47.8%.

With `O=C(O)/C=C/c1ccc(O)c(O)c1` [Caffeic acid] the “SFV replication % left (surviving fraction, remaining percentage of SFV replication)” value [1] was 98.7% and the “CHIKV replicon % left” value [2] was 85.2%.

`CCCCNc1ccc(C(=O)OCCN(C)C)cc1` [Cainopan, p-Butylaminobenzoyldimethylaminoethanol] was tested, and the “SFV replication % left (surviving fraction, remaining percentage of SFV replication)” value [1] was 63.8% and the “CHIKV replicon % left” value [2] was 82.2%.

`CC(C)(CO)[C@@H](O)C(=O)NCCC(=O)O` [Calcium pantothenate] was tested, and the “SFV replication % left (surviving fraction, remaining percentage of SFV replication)” value [1] was 67.9% and the “CHIKV replicon % left” value [2] was 89.1%.

For `CC[C@@]1(O)C(=O)OCc2c1cc1n(c2=O)Cc2cc3ccccc3nc2-1` [Camptothecin], the “SFV replication % left (surviving fraction, remaining percentage of SFV replication)” value [1] was 87.7% and the “CHIKV replicon % left” value [2] was 100.4%.

With `NC(=O)N1c2ccccc2C=Cc2ccccc21` [Carbamazepine] the “SFV replication % left (surviving fraction, remaining percentage of SFV replication)” value [1] was 57.2% and the “CHIKV replicon % left” value [2] was 100.2%.

In the case of `CC(C)(C)NCC(O)COc1cccc2c1CCC(=O)N2` (stereo not drawn) [Carteolol hydrochloride], the “SFV replication % left (surviving fraction, remaining percentage of SFV replication)” value [1] is reported as 67.2% and the “CHIKV replicon % left” value [2] is reported as 78.1%.

With `Oc1ccccc1O` [Catechol] the “SFV replication % left (surviving fraction, remaining percentage of SFV replication)” value [1] was 58.4% and the “CHIKV replicon % left” value [2] was 77.7%.

In the case of `CCCCCCCCCCCCCCCC[N+](C)(C)C` [Cetrimonium bromide], the “SFV replication % left (surviving fraction, remaining percentage of SFV replication)” value [1] is reported as 75.0% and the “CHIKV replicon % left” value [2] is reported as 80.5%.

`O=C(N[C@H](CO)[C@H](O)c1ccc([N+](=O)[O-])cc1)C(Cl)Cl` [Chloramphenicol] was tested, and the “SFV replication % left (surviving fraction, remaining percentage of SFV replication)” value [1] was 73.8% and the “CHIKV replicon % left” value [2] was 53.2%.

With `CNC1=Nc2ccc(Cl)cc2C(c2ccccc2)=[N+]([O-])C1` [Chlordiazepoxide] the “SFV replication % left (surviving fraction, remaining percentage of SFV replication)” value [1] was 54.3% and the “CHIKV replicon % left” value [2] was 100.6%.

`CC(C)(O)C(Cl)(Cl)Cl` [Chlorobutanol] was tested, and the “SFV replication % left (surviving fraction, remaining percentage of SFV replication)” value [1] was 84.2% and the “CHIKV replicon % left” value [2] was 95.1%.

With `NS(=O)(=O)c1cc2c(cc1Cl)N=CNS2(=O)=O` [Chlorothiazide] the “SFV replication % left (surviving fraction, remaining percentage of SFV replication)” value [1] was 90.3% and the “CHIKV replicon % left” value [2] was 82.1%.

In the case of `CN(C)CC/C=C1/c2ccccc2Sc2ccc(Cl)cc21` [Chlorprothixene hydrochloride], the “SFV replication % left (surviving fraction, remaining percentage of SFV replication)” value [1] is reported as 90.3% and the “CHIKV replicon % left” value [2] is reported as 78.2%.

With `O=C(O)c1cc(-c2ccccc2)nc2ccccc12` [Cinchophen] the “SFV replication % left (surviving fraction, remaining percentage of SFV replication)” value [1] was 65.1% and the “CHIKV replicon % left” value [2] was 51.2%.

In the case of `Cl.Cl.OCCN1CCN(CC/C=C2/c3ccccc3Sc3ccc(C(F)(F)F)cc32)CC1` [Cis(Z)-Flupentixol dihydrochloride], the “SFV replication % left (surviving fraction, remaining percentage of SFV replication)” value [1] is reported as 92.6% and the “CHIKV replicon % left” value [2] is reported as 102.7%.

In the case of `COc1cc(OC)c2ccc(=O)oc2c1` [Citropten], the “SFV replication % left (surviving fraction, remaining percentage of SFV replication)” value [1] is reported as 67.4% and the “CHIKV replicon % left” value [2] is reported as 106.4%.

With `Oc1c(I)cc(Cl)c2cccnc12` [Clioquinol] the “SFV replication % left (surviving fraction, remaining percentage of SFV replication)” value [1] was 71.9% and the “CHIKV replicon % left” value [2] was 32.7%.

For `Cl.Cl.OCCN1CCN(CCC=C2c3ccccc3Sc3ccc(Cl)cc32)CC1` [Clopenthixol dihydrochloride], the “SFV replication % left (surviving fraction, remaining percentage of SFV replication)” value [1] was 55.2% and the “CHIKV replicon % left” value [2] was 40.1%.

`CC(C)NCC(O)c1ccccc1Cl.Cl.O` (stereo not drawn) [Clorprenaline hydrochloride] was tested, and the “SFV replication % left (surviving fraction, remaining percentage of SFV replication)” value [1] was 63.7% and the “CHIKV replicon % left” value [2] was 102.2%.
